Test results reported in US20240245677A1, “SELECTED COMPOUNDS FOR TARGETED DEGRADATION OF BRD9” (C4 THERAPEUTICS, INC., priority 2021, published 2024).

Biological target: hERG potassium channels (Homo sapiens, UniProt Q12809)
Assay: cell-based
Method: The effects of Compound 1 on the hERG potassium channels were evaluated using the automated patch clamp method (SyncroPatch® 384PE, Nanion Technologies GmbH, Munich, Germany).
CHO cells stably expressing hERG potassium channels (Sophion Bioscience, Inc. Bedford, MA, USA) were used for this test. The cells were cultured in a humidified and air-controlled (5% CO2) incubator at 37° C. The CHO hERG cell culture medium was 500 mL Ham's F-12 medium (Catalog No. 31765035, Invitrogen, Waltham, MA, USA), 50 mL HyClone™ Fetal Bovine Serum (Catalog No. SV30087.03, Cytiva, Marlborough, MA, USA), 1 mL Geneticin™ (G418 Sulfate, 50 mg/mL)) (Catalog No. 10131027, Invitrogen, Waltham, MA, USA), and 1 mL Hygromycin B (50 mg/mL) (Catalog No. 10687010, Invitrogen, Waltham, MA, USA).
The CHO cells were at least two days after plating and more than 75% confluent were used. Before testing, cells were harvested using TrypLE™ and resuspended in the physiological solution at the room temperature.
The solutions in Table 9 were used for the electrophysiological recordings. The physiological solution and external solution were prepared at least one month prior to the experiment. The intracellular solution was prepared in batches, aliquoted, and stored at 4° C. until use.
The stock solutions were further diluted into external solution to achieve final concentrations for testing. A visual check for precipitation was conducted before testing. Final DMSO concentration in external solution was not more than 0.30% for the test compounds.
The voltage command protocol started from a holding potential of −80 mV. Then, the voltage was first stepped to −50 mV for 80 ms for leak subtraction, and then stepped to +20 mV for 4,800 ms to open hERG channels. After that, the voltage was stepped back down to −50 mV for 5,000 ms, causing a “rebound” or tail current, which was measured and collected for data analysis. Finally, the voltage was stepped back to the holding potential of −80 mV for 1,000 ms. This voltage command protocol was repeated every 20,000 msec, and performed continuously during the test of vehicle control and test compounds.
This SyncroPatch hERG assay was conducted at room temperature. The Setup, Prime Chip, Catch and Seal Cells, Amplifier Settings, Voltage and Application Protocols were established with […] (Nanion Technologies GmbH, Munich, Germany). One addition of 40 μL of vehicle was applied, followed by a baseline period of 300 s. Then 40 μL doses of test compounds were added. The exposure of test compound at each concentration was no less than 300 s. The recording for the whole process passed quality control or the well was abandoned and the compound was retested, all automatically set by PatchControl (Nanion Technologies, Munich, Germany). Five concentrations (0.30 μM, 1.00 μM, 3.00 μM, 10.00 μM and 30.00 μM) were tested for each compound. A minimum of 2 replicates per concentration were obtained.
Data analysis was carried out using DataControl® (Nanion Technologies GmbH, Munich, Germany), EXCEL 2013 (Microsoft Corporation, Redmond, WA, USA) and GraphPad Prism 5.0 (GraphPad Software, LLC, San Diego, CA, USA).
Within each recording well, percent of control values were calculated for each test compound concentration current response based on peak current in presence of reference control (current response/peak current)×100%. The Dose-Response curves were fit to the standard Hill equation as shown below: […]
where X is the logarithm of concentration, Ipost cpd/Ipre cpd is the normalized peak current amplitude, Top is 1, and Bottom is equal to 0. Curve-fitting and IC50 calculations were performed by GraphPad Prism 5.0.

Sequence of hERG potassium channels (Q12809 whole entry): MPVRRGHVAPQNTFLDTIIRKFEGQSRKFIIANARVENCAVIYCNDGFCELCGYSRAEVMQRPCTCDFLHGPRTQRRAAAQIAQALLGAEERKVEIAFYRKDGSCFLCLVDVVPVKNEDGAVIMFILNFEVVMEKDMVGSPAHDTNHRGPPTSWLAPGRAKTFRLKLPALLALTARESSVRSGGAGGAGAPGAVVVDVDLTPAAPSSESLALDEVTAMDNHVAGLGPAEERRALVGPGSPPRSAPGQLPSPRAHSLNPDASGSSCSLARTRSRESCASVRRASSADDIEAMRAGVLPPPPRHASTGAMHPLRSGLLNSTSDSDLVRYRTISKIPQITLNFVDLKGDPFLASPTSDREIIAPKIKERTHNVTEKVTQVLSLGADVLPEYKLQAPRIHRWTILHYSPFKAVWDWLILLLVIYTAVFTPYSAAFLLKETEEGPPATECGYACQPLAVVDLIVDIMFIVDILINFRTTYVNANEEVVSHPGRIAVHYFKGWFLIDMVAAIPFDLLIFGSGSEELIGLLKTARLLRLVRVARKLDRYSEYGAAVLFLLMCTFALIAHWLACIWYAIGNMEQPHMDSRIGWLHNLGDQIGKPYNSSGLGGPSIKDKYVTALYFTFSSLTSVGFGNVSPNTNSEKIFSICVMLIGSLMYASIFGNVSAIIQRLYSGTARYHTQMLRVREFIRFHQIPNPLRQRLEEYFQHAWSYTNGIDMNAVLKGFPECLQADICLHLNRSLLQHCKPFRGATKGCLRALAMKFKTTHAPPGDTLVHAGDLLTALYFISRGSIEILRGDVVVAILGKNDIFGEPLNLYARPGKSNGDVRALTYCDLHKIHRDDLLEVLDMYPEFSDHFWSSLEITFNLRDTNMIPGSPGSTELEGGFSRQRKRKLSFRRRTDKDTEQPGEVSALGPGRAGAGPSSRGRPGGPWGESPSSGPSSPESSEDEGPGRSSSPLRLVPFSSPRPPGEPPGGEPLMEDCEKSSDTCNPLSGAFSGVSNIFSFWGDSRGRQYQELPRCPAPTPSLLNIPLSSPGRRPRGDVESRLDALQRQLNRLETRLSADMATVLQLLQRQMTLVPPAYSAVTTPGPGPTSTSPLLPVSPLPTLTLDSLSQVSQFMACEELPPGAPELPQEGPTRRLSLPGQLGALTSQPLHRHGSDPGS

Question: What does the source list for `COc1cc(-c2cn(C)c(=O)c(C)c2C)cc(OC)c1CN1CC[C@H](N2CCN(c3ccc(N[C@H]4CCC(=O)NC4=O)cc3F)CC2)C(F)(F)C1` [Compound 1, (S)-3-((4-(4-((S)-1-(2,6-dimethoxy-4-(1,4,5-trimethyl-6-oxo-1,6-dihydropyridin-3-yl)benzyl)-3,3-difluoropiperidin-4-yl)piperazin-1-yl)-3-fluorophenyl)amino)-piperidine-2,6-dione]?
Answer: IC50: 2910 nM; HillSlope (human): 1.26; POI (%) (human, 0.3 µM): 12.42%; POI (%) (human, 1 µM): 14.61%; POI (%) (human, 3 µM): 22.59%; POI (%) (human, 10 µM): 19.49%; POI (%) (human, 30 µM): 21.92%
